# Results: patent US20250009746A1, “COMBINATION THERAPY FOR TREATING ABNORMAL CELL GROWTH” (Verastem, Inc., priority 2021, published 2025)
# “Also recorded” adds a separate entry of the source.
# What was measured:
# Assay type in all cases: cell-based
# [1] = test system: NRAS mutant human melanoma cell lines; assay: 3D proliferation assay (CellTiter-Glo) with synergy analysis, NRAS mutant melanoma panel; conditions: VS-6766 + pan-RAF inhibitor (e.g., belvarafenib, naporafenib, lifirafenib, tovorafenib); 7 days; 3 NRAS mutant melanoma cell lines; Bliss, Loewe, HSA, ZIP (FIGS. 7, 8)
# Method: (§1) As examples, BRAF V600E human melanoma, BRAF V600E human colorectal carcinoma (CRC), and NRAS mutant human melanoma cell lines were grown in 3D conditions. Briefly, 96-well plates were coated with 50 μL of Matrigel (100%) and incubated at 37° C. and 5% CO2 for 30 min in order for the Matrigel to solidify. Cells were seeded in 100 μL of 2% Matrigel containing medium. After an overnight incubation (17-22 hours), cells were treated with VS-6766+/−BRAF V600 inhibitor (e.g., vemurafenib, dabrafenib, encorafenib), VS-6766+/−pan-RAF inhibitor (e.g., belvarafenib, naporafenib, lifirafenib, tovorafenib), or MEK inhibitor (e.g., cobimetinib, trametinib, binimetinib)+/−BRAF (e.g., vemurafenib, dabrafenib, encorafenib) inhibitor for 7 days. VS-6766 and MEK inhibitors were used at 1:5 dilutions starting at 5 μM. BRAF V600 inhibitors and pan-RAF inhibitors were used at 1:3 dilutions starting at 5 μM. Cell viability was measured using the cell viability CellTiter-Glo assay.
# (§2) Raw data and metadata files were processed with a custom R-script for single agent and combination activity. Bliss, Loewe, Highest Single Agent (HSA) and ZIP synergy analysis were performed to generate a composite synergy score. Summary graphics and reports were saved for visualization and further analysis.
# [2] = test system: BRAF V600E human colorectal carcinoma (CRC) cell lines; assay: 3D proliferation assay (CellTiter-Glo) with synergy analysis, BRAF V600E CRC panel
# Method: as §1, §2
# [3] = test system: BRAF V600E human melanoma cell lines; assay: 3D proliferation assay (CellTiter-Glo) with synergy analysis, BRAF V600E melanoma panel
# Method: as §1, §2
smiles,measurement,setting,value
CNS(=O)(=O)Nc1nccc(Cc2c(C)c3ccc(Cc4ncccn4)cc3oc2=O)c1F [VS-6766],synergy with pan-RAF inhibitors in reducing cell viability,[1],strong synergy; also recorded: synergistic
same,synergy of VS-6766+BRAFi compared with synergy of MEKi+BRAFi,"[2]; BRAF V600E colorectal carcinoma cell lines, composite synergy score (FIG. 4)",better
same,synergy of VS-6766+vemurafenib compared with synergy of cobimetinib+vemurafenib,"[2]; BRAF V600E colorectal carcinoma cell lines, dose-response matrices, each agent starting at 5 μM, Bliss synergy shown (FIG. 5)",better
same,synergy of VS-6766+dabrafenib compared with synergy of trametinib+dabrafenib,"[2]; BRAF V600E colorectal carcinoma cell lines, dose-response matrices, each agent starting at 5 μM, Bliss synergy shown (FIG. 6)",better
same,synergy with BRAF V600 inhibitors in reducing cell viability,"[2]; VS-6766 + BRAF V600 inhibitor (e.g., vemurafenib, dabrafenib, encorafenib), 7 days, 3 BRAF V600E CRC cell lines, Bliss, Loewe, HSA, ZIP composite synergy score",synergistic
same,synergy of VS-6766+BRAFi compared with synergy of MEKi+BRAFi,"[3]; BRAF V600E melanoma cell lines, composite synergy score (FIG. 1)",better
same,synergy of VS-6766+vemurafenib compared with synergy of cobimetinib+vemurafenib,"[3]; BRAF V600E melanoma cell lines, dose-response matrices, each agent starting at 5 μM, Bliss synergy shown (FIG. 2)",better
same,synergy of VS-6766+dabrafenib compared with synergy of trametinib+dabrafenib,"[3]; BRAF V600E melanoma cell lines, dose-response matrices, each agent starting at 5 μM, Bliss synergy shown (FIG. 3)",better
same,synergy with BRAF V600 inhibitors in reducing cell viability,"[3]; VS-6766 + BRAF V600 inhibitor (e.g., vemurafenib, dabrafenib, encorafenib), 7 days, 5 BRAF V600E melanoma cell lines, Bliss, Loewe, HSA, ZIP composite synergy score",synergistic
